Results as given in US20250059187A1, “COVALENTLY BINDING INHIBITORS OF G12S, G12D AND/OR G12E MUTANTS OF K-RAS GTPASE” (The Regents of the University of California, priority 2021, published 2025).

Target: T1, wild type K-Ras (Homo sapiens, UniProt P01116)
T1 construct: human K-Ras (wildtype, aa 1-169); 6xHis tag + TEV cleavage site (N, cleaved yes); made in house; host or cells: E. coli BL21(DE3)
Assay: Covalent modification of test protein after incubation with compound
Assay type: binding
Settings: 24-h incubation with 100 μM compound at 23° C. at pH 7.5

T1 sequence (P01116 1-169 isoform P01116-2): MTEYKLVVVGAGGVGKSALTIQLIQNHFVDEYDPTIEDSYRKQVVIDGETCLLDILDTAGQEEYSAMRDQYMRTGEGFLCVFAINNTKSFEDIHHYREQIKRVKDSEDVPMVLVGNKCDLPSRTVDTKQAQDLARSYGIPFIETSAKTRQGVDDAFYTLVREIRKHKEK

- % covalent modification of wild type K-Ras: 0%
Compound: O=C1O[C@H]2CN(c3nc(OCC45CCCN4CCC5)nc4c(F)c(-c5cccc6cccc(Cl)c56)ncc34)CC[C@@H]12 [5′]
